Literature values as cited in US20260209855A1, “COMPOSITIONS AND METHODS FOR DETECTION AND TREATMENT OF PROSTATE CANCER” (The Regents of the University of California, priority 2022, published 2026).

How the values were obtained:
[1] = tested on: benign prostatic hyperplasia (BPH); details: patients with BPH and AI, treatment prior to BPH diagnosis; result in words
PCa = details: result in words
PCa patients = details: clinical trials; result in words

CN(Cc1cnc2nc(N)nc(N)c2n1)c1ccc(C(=O)N[C@@H](CCC(=O)O)C(=O)O)cc1 [methotrexate]
Likelihood to develop BPH [1]: did not have this effect

bevacizumab
Clinical trial results in the treatment of PCa (PCa): conflicting results

B1: siltuximab (antibody, chains of the INN, looked up, V domains shown)
VH: EVQLVESGGKLLKPGGSLKLSCAASGFTFSSFAMSWFRQSPEKRLEWVAEISSGGSYTYYPDTVTGRFTISRDNAKNTLYLEMSSLRSEDTAMYYCARGLWGYYALDYWGQGTSVTVSS
VL: QIVLIQSPAIMSASPGEKVTMTCSASSSVSYMYWYQQKPGSSPRLLIYDTSNLASGVPVRFSGSGSGTSYSLTISRMEAEDAATYYCQQWSGYPYTFGGGTKLEIK
notes: An IL-6 antagonist tested in clinical trials in PCa patients
Clinical efficacy in PCa patients (PCa patients): no clinical efficacy
